Earlier results in US20090317487A1, “KITS FOR PREVENTION AND TREATMENT OF RHINITIS” (priority 2006, published 2009).

Test system: infectious rhinitis (common cold)
Settings: patients; literature studies (Mossad 1996, Prasad 2000, Farr 1987)

Compound | effect on severity and/or duration of infectious rhinitis (common cold)
CC(=O)[O-].CC(=O)[O-].[Zn+2] [zinc acetate] | reduced duration of infection
[Zn] [zinc] | significant effect on the severity and duration of infectious rhinitis
